# According to patent US9926347B2, “Methods for engineering sugar transporter preferences” (Board of Regents, The University of Texas System, priority 2013, dated 2018):
# Numbering of substitutions follows the chain as printed. Names may count otherwise. “Also recorded” adds a separate entry of the source.
# T1: Candida intermedia GXS1 variant Phe38 Ile39 Met40 (F38I39M40; V38F/L39I/F40M; motif G-G-F-I-M-G, SEQ ID NO: 4; parent GXS1 SEQ ID NO: 1) (Sungouiella intermedia, UniProt Q2MEV7, F40M/L39I/V38F)
# T1 construct: 14C-xylose uptake
# T1 sequence (Q2MEV7 1-522 V38F/L39I/F40M): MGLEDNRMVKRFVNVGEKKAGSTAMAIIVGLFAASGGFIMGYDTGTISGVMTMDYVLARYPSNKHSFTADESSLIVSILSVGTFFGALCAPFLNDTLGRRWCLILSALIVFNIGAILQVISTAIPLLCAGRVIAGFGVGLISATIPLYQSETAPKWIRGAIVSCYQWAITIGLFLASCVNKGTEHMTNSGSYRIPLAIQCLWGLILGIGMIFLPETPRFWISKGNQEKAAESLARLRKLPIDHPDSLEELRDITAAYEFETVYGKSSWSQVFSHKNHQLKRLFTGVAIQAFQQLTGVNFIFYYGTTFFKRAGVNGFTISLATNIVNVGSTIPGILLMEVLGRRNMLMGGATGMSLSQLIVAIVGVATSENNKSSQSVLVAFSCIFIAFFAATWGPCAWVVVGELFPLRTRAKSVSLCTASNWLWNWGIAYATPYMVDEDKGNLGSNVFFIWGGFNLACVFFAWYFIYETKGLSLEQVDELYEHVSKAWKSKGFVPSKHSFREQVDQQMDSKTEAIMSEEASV
# T2: Candida intermedia GXS1 transporter protein, wild type, SEQ ID NO: 1 (Sungouiella intermedia, UniProt Q2MEV7)
# T2 construct: 14C-xylose uptake
# T2 sequence (Q2MEV7 1-522): T1 sequence (Q2MEV7 1-522 V38F/L39I/F40M) with F38V, I39L, M40F
# B1: Candida intermedia GXS1 variant Phe38 Ile39 Met40 (F38I39M40; V38F/L39I/F40M; motif G-G-F-I-M-G, SEQ ID NO: 4; parent GXS1 SEQ ID NO: 1) (Sungouiella … (protein)
# chain: T1 sequence (Q2MEV7 1-522 V38F/L39I/F40M)
# notes: 14C-xylose uptake
# B2: Candida intermedia GXS1 transporter protein, wild type, SEQ ID NO: 1 (Sungouiella intermedia) (protein)
# chain: T1 sequence (Q2MEV7 1-522 V38F/L39I/F40M) with F38V, I39L, M40F
# notes: 14C-xylose uptake
# Legend:
# [1] = target: Candida intermedia GXS1 variant Phe38 Ile39 Met40 (F38I39M40; motif G-G-F-I-M-G, SEQ ID NO: 4; parent GXS1 SEQ ID NO: 1) (Sungouiella intermedia, UniProt Q2MEV7, F40M/L39I/V38F); assay type: cell-based; conditions: glucose at levels of 5 g/L; S. cerevisiae EX.12
# Method: Growth rate measurements—All exponential growth rates were measured and calculated according to the method previously described using a Bioscreen C (Growth Curves USA, Piscataway, N.J.) and a MATLAB script. The Bioscreen C measures online optical density for easy and accurate measurement of the growth curves of up to 200 strains at one time. Error was calculated based on biological triplicate in all cases. In all cases, the Bioscreen C was set to maintain a temperature of 30° C., employ high continuous shaking, and to measure optical density every 10 minutes. A single carbon source per well was used in all experiments save one.
# [2] = target: T1, Candida intermedia GXS1 variant Phe38 Ile39 Met40 (F38I39M40; V38F/L39I/F40M; motif G-G-F-I-M-G, SEQ ID NO: 4; parent GXS1 SEQ ID NO: 1); assay: Radiolabeled xylose uptake kinetics, gxs1 Phe38 Ile39 Met40 triple mutant; assay type: cell-based
# Method: (§1) Radiolabelled xylose uptake experiments were performed to quantify the improvement of transport kinetics in the Phe^38 Ile^39 Met^40 triple mutant. […] An increased KM was observed as well (FIG. 5E), a phenotype observed in previous efforts to engineer this transporter (38). Nevertheless, the binding affinity is still quite high for practical culturing at a value corresponding to around 0.1 g/L (Table 2).
# (§2) Strains, media, and plasmids—Molecular cloning and standard culturing techniques with E. coli DH10B were performed according to Sambrook (46). S. cerevisiae EX.12 was used for all yeast experiments and was constructed as previously described (38). All transporters were cloned into p414-TEF, a standard yeast shuttle vector created by Mumberg (47). Yeast synthetic complete media was used for culture and experimental growth media. CSM-Trp was used when S. cerevisiae EX.12 was carrying a transporter. Carbon sources were provided at 20 g/L.
# (§3) Radiolabeled xylose uptake—Uptake of ^14C labeled xylose was used to determine the Michaelis-Menten parameters for C. intermedia GXS1 and the Phe^38 Ile^39 Met^40 triple mutant. The method was performed as previously described (38).
# [3] = target: T2, Candida intermedia GXS1 transporter protein, wild type, SEQ ID NO: 1; assay: Radiolabeled xylose uptake kinetics, wild type GXS1; assay type: cell-based; conditions: gene in p414-TEF, S. cerevisiae EX.12
# Method: as §1, §2, §3
# [4] = system: Candida intermedia GXS1 variant Phe38 Ile39 Met40 (F38I39M40; V38F/L39I/F40M; motif G-G-F-I-M-G, SEQ ID NO: 4; parent GXS1 SEQ ID NO: 1); assay: Radiolabeled xylose uptake kinetics, gxs1 Phe38 Ile39 Met40 triple mutant; assay type: cell-based; conditions: triple mutant versus wild type GXS1
# Method: as §1, §2, §3
# [5] = substrate: OC1OC[C@@H](O)[C@H](O)[C@H]1O; assay: as above; assay type: cell-based
# Method: as §1, §2, §3
# [6] = substrate: OC1OC[C@@H](O)[C@H](O)[C@H]1O; assay: Radiolabeled xylose uptake kinetics, wild type GXS1; assay type: cell-based, Candida intermedia; conditions: other: radiolabeled xylose uptake; gene in p414-TEF; S. cerevisiae EX.12
# Method: as §1, §2, §3
molecule,measurement,setting,value
OC[C@H]1OC(O)[C@H](O)[C@@H](O)[C@@H]1O (stereo partly shown) [glucose],inhibition of xylose growth by glucose,[1],still appear to inhibit xylose growth
same,radiolabelled xylose uptake in the presence of glucose (inhibition by glucose),[2]; glucose concentration not stated,no radiolabelled xylose uptake was detected
OC1OC[C@@H](O)[C@H](O)[C@H]1O (stereo partly shown) [xylose],VMAX (xylose),[3],7.23 ± 0.6 nmol min^−1 gDCW^−1
same,KM change compared to wild type (xylose),[4],increased KM; also recorded: significantly increased
same,Vmax change compared to wild type (xylose),[4],doubling in Vmax
same,VMAX (xylose),"[2]; radiolabeled xylose uptake, gene in p414-TEF, S. cerevisiae EX.12",15.01 ± 2.38 nmol min^−1 gDCW^−1
same,Km,"[2]; read-out: binding affinity / KM (xylose), as g/L, conversion of KM",~666 µM
B1,Km,[5]; other: conversion of KM,0.1 g/L
same,Km,"[5]; other: radiolabeled xylose uptake, gene in p414-TEF, S. cerevisiae EX.12",721 ± 116 µM
B2,Km,[6],25.6 ± 65.9 µM
